We go through one compound from US20250381276A1, “SMALL MOLECULE CONJUGATED CHARGE-ALTERING RELEASABLE TRANSPORTERS FOR NUCLEIC ACID DELIVERY” (The Board of Trustees of the Leland Stanford Junior …, priority 2022, published 2025).

The experiment relates to peripheral blood lymphocytes. Put plainly: Lymphocyte depletion assay (peripheral blood T and B cells). The experiment is classed as in vivo, BALB/c mice. The note with it: single i.v. dose, 24 hours vs baseline; FTY720 12.9 μg, mRNA 7.5 μg/mouse. How it is done: For in vivo administration, CART formulations were prepared adding 18.75 μg of mRNA (18.75 uL of a 1 mg/mL stock) to 205 uL of PBS (pH 5.5) and to this 26.22 uL of CART (from a 2 mmol/L stock in DMSO) were added and mixed for 20 seconds. A total of 100 uL of this formulation was administered i.v. into the tail vein of each mouse, injecting two mice at a time per each treatment group and resulting in a final mRNA dose of 7.5 ug/mouse. CART formulations were injected immediately after mixing (within 20 s).
Blood was drawn from the submandibular vein of the mice immediately before and 24 hours after treatment with Fluc mRNA-CART complexes prepared and administered as above. In both cases approximately 1 mL of venous blood was collected per mouse into FACS tubes pre-filled with 500 μL of Ca^2+-EDTA. […]
One of the potential benefits of functionalizing an mRNA delivery vehicle with a small molecule is to exploit the biological properties of the small molecule for therapeutic purposes. […] Before treatment, mice were bled to measure the baseline levels of circulating T cells (CD3+) and B cells (B220+) calculated through flow cytometry as a percentage of the total peripheral blood lymphocytes. The mice were then bled 24 hours after treatment and the levels of peripheral T and B lymphocytes were measured again (FIG. 5). […]

For the compound `CCCCCCCCc1ccc(CCC(N)(CO)CO)cc1` [FTY720, fingolimod], the “Reduction in the percentage of circulating T cells (CD3+)” value came out at 84%.
